Blank lines part the entries; values can stand above or below the compound they belong to.
Legend:
sperm [1] = assay: Post thaw motility Elk (Example 3); assay type: cell-based; settings: post thaw 0 HR; RED TALP with 16 μL Hoechst 33342, Y6 with 14 μL
Experimental: (§1) Each of deer and elk were collected in the Tris-egg yolk catch fluid described as a catch media in Example 1, and shipped for sorting.
(§2) A portion of each of the deer and the elk were stained by the red food dye No. 40 treatment 40% with 16 μL Hoechst 33342 and the yellow food dye No. 6 treatment with 14 μL Hoechst 33342 as described in Example 1.
(§3) Samples were each bulk sorted with the same machine and parameters described in Example 1. Both sorted X and sorted Y sperm were collected into a single catch. The sorted samples were then frozen like those described in Example 1.
(§4) Frozen thawed samples were then tested for post thaw motilities and post thaw DNA fragmentation. Post thaw motilities were slightly higher in Elk sorted with a yellow quencher, while a more significant difference existed in progressive motility. In Table 10, post thaw DNA fragmentation in Elk can be seen at about double after 48 hours when red food dye No. 40 is compared to yellow food dye No. 6 as a dead quencher.

sperm [2] = assay: Post thaw motility Deer (Example 3); assay type: cell-based; settings: post thaw 0 HR; RED TALP with 16 μL Hoechst 33342, Y6 with 14 μL
Experimental: as §1, §2, §3, §4

sperm [3] = assay: Post thaw DNA fragmentation Elk (Example 3); assay type: cell-based
Experimental: as §1, §2, §3, §4

sperm [4] = assay: Split quality, dead quenching dye combined with split enhancing dye (Example 7); assay type: cell-based, Jersey bull
Experimental: A single Jersey bull was collected at an initial sperm concentration 1810×10^6 sperm/ml in a volume of 3.9 ml. […] Samples were split into two equal aliquots and in one of each pair of samples, a stock solution of phenol red was added to make a final phenol red concentration of 620 μM. […] At each concentration, one control was compared to the addition of phenol red as a split enhancing dye at a concentration of 620 μM. Sorting was performed on a MoFlo SX (Beckman Coulter, USA) in substantially the same manner described in Example 5. After calibration, screen shots of sorting histograms were taken and split quality was measured by the peak to valley ration in the same way described in Example 5. The resulting data is found in Table 15.

sperm [5] = assay: Split quality, phenol red as added split enhancing dye (Example 8); assay type: cell-based, bulls (Jersey, Holstein)
Experimental: Two bulls were collected for the Example 8. The Bull 1 was a Jersey bulls and Bull 2 was a Holstein collected substantially in the manner described in example 1. Sperm from Bull 1 extended to 160 million per with a first buffer, (TALP described in table 1 at a pH 7.4) and divided into two groups for staining. The first group was stained with 44 μM Hoechst 33342 and the second group was stained with 60 μM Hoechst 33342. Similarly, bull 2 was suspended to 160 million per mL the first buffer, (TALP described in table 1 at a pH 7.4) and divided into three groups for staining. The first group was stained with 28 μM Hoechst 33342 and the second group was stained with 44 μM Hoechst 33342 and the third group was stained with 66 μM Hoechst 33342. Each group was incubated for 1 hour at 34° C. and then extended in an equal volume of the second buffer. […] The stained samples were each treated with a variety of quenching dyes and combinations of quenching dyes indicated in below. […] After calibration, screen shots of sorting histograms were taken and histograms split quality was measured as a peak to valley ratio in the same way described in Example 5 with reference to FIG. 4 and the resulting data is found in Table 16.

- post thaw DNA fragmentation compared to yellow food dye No. 6 (sperm [3]): about double
- DNA fragmentation Post Sort (sperm [3]; elk, 0 h): 0%
- DNA fragmentation Pre-sort (sperm [3]; elk, 0 h): 2.3%
- DNA fragmentation Post Sort (sperm [3]; elk, 24 h): 0.3%
- DNA fragmentation Pre-sort (sperm [3]; elk, 24 h): 5.6%
- DNA fragmentation Post Sort (sperm [3]; elk, 48 h): 0.7%
- DNA fragmentation Pre-sort (sperm [3]; elk, 48 h): 6%
Compound: COc1cc(S(=O)(=O)O)c(C)cc1N=Nc1c(O)ccc2cc(S(=O)(=O)O)ccc12 [Red 40, 6-hydroxy-5-[(2-methoxy-5-methyl-4-sulfophenyl)azo]-2-naphthalenesulfonic acid, reference compound]
- Motile (sperm [1]): 51.0
- Progressive (sperm [1]): 29.0
- Progressive (sperm [2]): 43.0

Compound: O=S1(=O)OC(c2ccc(O)cc2)(c2ccc(O)cc2)c2ccccc21 [Phenol Red, phenolsulfonphthalein]
- peak quality of combination versus dead quencher alone (sperm [4]; phenol red 620 μM with yellow food dye No. 6 62 μM, each sperm concentration tested): gives better peak quality
- effect of adding phenol red on split quality (sperm [5]; each Hoechst staining level, with Red 40 or Yellow 6): always improved split quality

- DNA fragmentation Post Sort (sperm [3]; post thaw 0 HR): 0%
- DNA fragmentation Pre-sort (sperm [3]; post thaw 0 HR): 2.3%
- DNA fragmentation Post Sort (sperm [3]; post thaw 24 HR): 0%
- DNA fragmentation Pre-sort (sperm [3]; post thaw 24 HR): 3.3%
- DNA fragmentation Post Sort (sperm [3]; post thaw 48 HR): 0.3%
- DNA fragmentation Pre-sort (sperm [3]; post thaw 48 HR): 3.7%
Compound: O=S(=O)([O-])c1ccc(N=Nc2c(O)ccc3cc(S(=O)(=O)[O-])ccc23)cc1.[Na+].[Na+] [Yellow 6, Disodium 6-hydroxy-5[(4-sulfophenyl)azo]-2-naphthalenesulfononate]
- Height of Peak Divided by Height of Valley (sperm [4]; 150 million cells per mL, Yellow 6 62 μM, Phenol Red 0 μM): 1.30
- Motile (sperm [1]): 55.5
- Progressive (sperm [1]): 38.0
- Motile (sperm [2]): 67.5
- Progressive (sperm [2]): 53.2
- PV (sperm [5]; Bull 1, Hoechst 33342 44 μM, R40 0, Y6 50 μM, PR 0): 1.20

— patent publication US9581587B2, “Sperm staining and sorting methods” (INGURAN, LLC, priority 2011, dated 2017)
